SMILES: O=C(Nc1ccc([N+](=O)[O-])cc1Cl)c1cc(Cl)ccc1O
- solubility (mole fraction) (in DMSO, 298.15 K): 0.000152
- solubility (mole fraction) (in DMSO, 303.15 K): 0.000161
- solubility (mole fraction) (in DMSO, 308.15 K): 0.000165
- solubility (mole fraction) (in DMSO, 313.15 K): 0.000167
- solubility (mole fraction) (in DMSO, 318.15 K): 0.00017
- solubility (mole fraction) (in DMSO, 323.15 K): 0.000205
- solubility (mole fraction) (in PEG-200, 298.15 K): 0.000527
- solubility (mole fraction) (in PEG-200, 303.15 K): 0.000556
- solubility (mole fraction) (in PEG-200, 308.15 K): 0.000604
- solubility (mole fraction) (in PEG-200, 313.15 K): 0.000666
- solubility (mole fraction) (in PEG-200, 318.15 K): 0.000686
- solubility (mole fraction) (in PEG-200, 323.15 K): 0.00079
- solubility (mole fraction) (in PEG-400, 298.15 K): 0.0011
- solubility (mole fraction) (in PEG-400, 303.15 K): 0.00129
- solubility (mole fraction) (in PEG-400, 308.15 K): 0.00138
- solubility (mole fraction) (in PEG-400, 313.15 K): 0.00159
- solubility (mole fraction) (in PEG-400, 318.15 K): 0.00168
- solubility (mole fraction) (in PEG-400, 323.15 K): 0.00193
- solubility (mole fraction) (in ethanol, 298.15 K): 0.000166
- solubility (mole fraction) (in ethanol, 303.15 K): 0.000183
- solubility (mole fraction) (in ethanol, 308.15 K): 0.000186
- solubility (mole fraction) (in ethanol, 313.15 K): 0.000186
- solubility (mole fraction) (in ethanol, 318.15 K): 0.000199
- solubility (mole fraction) (in ethanol, 323.15 K): 0.0002
- solubility (mole fraction) (in isopropanol, 298.15 K): 0.000242
- solubility (mole fraction) (in isopropanol, 303.15 K): 0.000274
- solubility (mole fraction) (in isopropanol, 308.15 K): 0.000279
- solubility (mole fraction) (in isopropanol, 313.15 K): 0.000304
- solubility (mole fraction) (in isopropanol, 318.15 K): 0.000345
- solubility (mole fraction) (in isopropanol, 323.15 K): 0.000348
- solubility (mole fraction) (in methanol, 298.15 K): 7.78e-05
- solubility (mole fraction) (in methanol, 303.15 K): 7.69e-05
- solubility (mole fraction) (in methanol, 308.15 K): 6.9e-05
- solubility (mole fraction) (in methanol, 313.15 K): 6.75e-05
- solubility (mole fraction) (in methanol, 318.15 K): 5.9e-05
- solubility (mole fraction) (in methanol, 323.15 K): 5.35e-05
- solubility (mole fraction) (in n-butanol, 298.15 K): 0.000305
- solubility (mole fraction) (in n-butanol, 303.15 K): 0.000309
- solubility (mole fraction) (in n-butanol, 308.15 K): 0.000345
- solubility (mole fraction) (in n-butanol, 313.15 K): 0.000347
- solubility (mole fraction) (in n-butanol, 318.15 K): 0.000402
- solubility (mole fraction) (in n-butanol, 323.15 K): 0.000591
- solubility (mole fraction) (in water, 298.15 K): 3.27e-07
- solubility (mole fraction) (in water, 303.15 K): 4.12e-07
- solubility (mole fraction) (in water, 308.15 K): 4.19e-07
- solubility (mole fraction) (in water, 313.15 K): 4.27e-07
- solubility (mole fraction) (in water, 318.15 K): 4.74e-07
- solubility (mole fraction) (in water, 323.15 K): 6.04e-07
